Results taken from US11053225B2, “Pyrimidine derivative compound, optical isomer thereof, or pharmaceutically acceptable salt thereof, and composition for preventing or treating Tyro 3 related disease comprising same as active ingredient” (KOREA RESEARCH INSTITUTE OF CHEMICAL TECHNOLOGY, priority 2017, dated 2021).
Values belong to the molecule of their own block, whether it stands above or below them.

Tests used:
hERG = hERG (Homo sapiens (Human), UniProt Q12809); assay: human ether-a-go-go-related gene (hERG) assay; conditions: for hERG toxicity: result in words
Method: In the development of medicines, drug toxicity as well as therapeutic effects plays an important role. One of the most commonly used criteria for determining drug toxicity is human ether-a-go-go-related gene (hERG) toxicity. Most pharmaceutical companies determine a drug showing a hERG IC50 value of less than 0.1 μM to be highly toxic, and thus stop the development of the drug. Whereas, the companies determine a drug showing a hERG IC50 value of 10 μM or more to be non-toxic.
For investigation of the degree of drug toxicity by TAM receptor inhibiting compounds of the present invention, human ether-a-go-go-related gene (hERG) assay was performed on Compounds 29, 60, 73, 75, 84, 89, and 132 on Table 4.

Tyro 3 = Tyro 3 (Homo sapiens (Human), UniProt Q06418); assay: Tyro 3 kinase inhibition assay (Cisbio method, Eu-labeled antibody to phosphorylated peptide); conditions: read-out: IC50 (μM) Tyro 3; 1 hour reaction with substrate peptide and ATP
Method: (§1) For evaluation of inhibitory activities of the compounds according to the present invention on Tyro 3, Axl, and Mer, the following test was carried out.
(§2) The specific test method followed the method provided by Cisbio. The compounds of the examples were prepared at various concentrations, followed by addition of Tyro 3, Axl, or Mer and substrate peptides, and then ATP was added to initiate a reaction. After 1 hour, the reaction was stopped by addition of a solution containing EDTA. Thereafter, the amount of phosphorylated peptides was measured. Here, the phosphorylated peptides were treated with an europium (Eu)-labeled antibody recognizing phosphorylated peptides, and then after 1 hour, excited by irradiation of the light of a wavelength of 320 or 340 nm using an Envision Reader.

Axl = Axl (Homo sapiens (Human), UniProt P30530); assay: Axl kinase inhibition assay (Cisbio method, Eu-labeled antibody to phosphorylated peptide); conditions: read-out: IC50 (μM) Axl; 1 hour reaction with substrate peptide and ATP
Method: as §1, §2

Mer = Mer (Homo sapiens (Human), UniProt Q12866); assay: Mer kinase inhibition assay (Cisbio method, Eu-labeled antibody to phosphorylated peptide); conditions: read-out: IC50 (μM) Mer; 1 hour reaction with substrate peptide and ATP
Chain of Mer (Q12866 21-999): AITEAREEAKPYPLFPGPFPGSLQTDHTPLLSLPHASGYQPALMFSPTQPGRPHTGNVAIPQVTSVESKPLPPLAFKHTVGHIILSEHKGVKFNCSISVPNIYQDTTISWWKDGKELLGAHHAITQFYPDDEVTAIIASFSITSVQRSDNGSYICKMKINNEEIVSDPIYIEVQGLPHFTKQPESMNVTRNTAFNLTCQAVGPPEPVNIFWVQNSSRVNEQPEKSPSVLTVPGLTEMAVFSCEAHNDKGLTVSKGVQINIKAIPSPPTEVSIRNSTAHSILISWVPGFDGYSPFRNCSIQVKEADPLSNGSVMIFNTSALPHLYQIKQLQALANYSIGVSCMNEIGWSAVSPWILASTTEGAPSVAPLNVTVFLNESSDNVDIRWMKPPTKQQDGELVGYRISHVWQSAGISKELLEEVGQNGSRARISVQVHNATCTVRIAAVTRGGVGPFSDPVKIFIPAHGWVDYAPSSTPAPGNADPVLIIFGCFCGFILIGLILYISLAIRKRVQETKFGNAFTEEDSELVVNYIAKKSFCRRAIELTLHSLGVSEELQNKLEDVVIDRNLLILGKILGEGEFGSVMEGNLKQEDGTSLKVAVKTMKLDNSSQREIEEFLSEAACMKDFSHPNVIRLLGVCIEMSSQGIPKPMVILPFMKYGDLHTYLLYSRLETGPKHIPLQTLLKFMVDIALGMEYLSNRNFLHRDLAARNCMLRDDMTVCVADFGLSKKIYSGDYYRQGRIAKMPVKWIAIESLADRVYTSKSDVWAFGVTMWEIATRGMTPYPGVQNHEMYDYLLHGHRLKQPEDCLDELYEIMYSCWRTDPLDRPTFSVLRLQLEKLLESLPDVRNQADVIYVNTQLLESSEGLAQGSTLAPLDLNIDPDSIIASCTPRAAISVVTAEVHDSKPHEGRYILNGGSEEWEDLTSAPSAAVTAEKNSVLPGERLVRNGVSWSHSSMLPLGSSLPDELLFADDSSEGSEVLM
Method: as §1, §2

Chain of Tyro 3 (Q06418 41-890): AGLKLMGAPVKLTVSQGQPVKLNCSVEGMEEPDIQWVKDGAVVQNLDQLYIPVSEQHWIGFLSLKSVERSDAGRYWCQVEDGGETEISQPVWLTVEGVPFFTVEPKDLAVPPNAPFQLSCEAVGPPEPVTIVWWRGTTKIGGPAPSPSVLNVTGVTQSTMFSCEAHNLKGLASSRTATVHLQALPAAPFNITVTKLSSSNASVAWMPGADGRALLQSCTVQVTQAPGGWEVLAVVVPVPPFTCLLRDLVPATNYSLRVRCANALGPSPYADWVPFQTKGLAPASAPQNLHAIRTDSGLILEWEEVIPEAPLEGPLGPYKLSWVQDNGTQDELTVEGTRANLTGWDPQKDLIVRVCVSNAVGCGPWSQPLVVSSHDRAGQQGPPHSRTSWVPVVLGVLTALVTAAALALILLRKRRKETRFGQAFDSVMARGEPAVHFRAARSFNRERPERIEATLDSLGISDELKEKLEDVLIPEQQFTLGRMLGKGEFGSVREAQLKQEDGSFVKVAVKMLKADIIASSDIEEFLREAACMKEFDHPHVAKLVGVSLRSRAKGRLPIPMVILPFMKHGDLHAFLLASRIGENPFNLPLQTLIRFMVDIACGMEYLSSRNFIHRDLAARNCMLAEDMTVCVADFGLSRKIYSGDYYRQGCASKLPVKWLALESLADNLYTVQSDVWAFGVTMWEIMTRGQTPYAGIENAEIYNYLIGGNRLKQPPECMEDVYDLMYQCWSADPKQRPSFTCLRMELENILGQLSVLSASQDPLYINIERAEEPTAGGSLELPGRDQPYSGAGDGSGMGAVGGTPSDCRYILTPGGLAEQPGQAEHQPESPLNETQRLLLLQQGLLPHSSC
Chain of Axl (P30530 26-894): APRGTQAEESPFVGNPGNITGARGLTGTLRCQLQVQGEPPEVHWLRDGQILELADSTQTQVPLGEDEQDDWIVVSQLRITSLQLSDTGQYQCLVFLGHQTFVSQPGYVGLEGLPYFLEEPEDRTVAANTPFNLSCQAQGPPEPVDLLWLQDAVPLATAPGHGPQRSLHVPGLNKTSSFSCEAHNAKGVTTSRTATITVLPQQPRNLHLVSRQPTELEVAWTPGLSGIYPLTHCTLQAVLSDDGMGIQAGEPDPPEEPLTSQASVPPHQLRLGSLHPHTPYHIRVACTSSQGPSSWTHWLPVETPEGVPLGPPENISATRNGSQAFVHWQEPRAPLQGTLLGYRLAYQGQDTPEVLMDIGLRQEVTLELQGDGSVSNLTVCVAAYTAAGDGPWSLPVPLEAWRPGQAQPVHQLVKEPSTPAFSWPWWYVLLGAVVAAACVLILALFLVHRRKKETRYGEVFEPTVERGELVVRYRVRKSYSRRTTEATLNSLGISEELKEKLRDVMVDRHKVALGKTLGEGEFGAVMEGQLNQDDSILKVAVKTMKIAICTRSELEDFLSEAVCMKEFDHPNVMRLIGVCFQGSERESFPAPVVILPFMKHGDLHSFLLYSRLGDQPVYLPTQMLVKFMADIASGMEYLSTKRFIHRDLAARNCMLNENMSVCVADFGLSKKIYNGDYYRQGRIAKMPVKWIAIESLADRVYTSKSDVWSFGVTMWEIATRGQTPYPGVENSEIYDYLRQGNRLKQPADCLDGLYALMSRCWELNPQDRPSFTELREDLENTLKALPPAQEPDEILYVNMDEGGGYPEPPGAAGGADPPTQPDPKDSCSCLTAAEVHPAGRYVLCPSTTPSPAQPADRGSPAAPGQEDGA
Chain of hERG (Q12809 whole entry): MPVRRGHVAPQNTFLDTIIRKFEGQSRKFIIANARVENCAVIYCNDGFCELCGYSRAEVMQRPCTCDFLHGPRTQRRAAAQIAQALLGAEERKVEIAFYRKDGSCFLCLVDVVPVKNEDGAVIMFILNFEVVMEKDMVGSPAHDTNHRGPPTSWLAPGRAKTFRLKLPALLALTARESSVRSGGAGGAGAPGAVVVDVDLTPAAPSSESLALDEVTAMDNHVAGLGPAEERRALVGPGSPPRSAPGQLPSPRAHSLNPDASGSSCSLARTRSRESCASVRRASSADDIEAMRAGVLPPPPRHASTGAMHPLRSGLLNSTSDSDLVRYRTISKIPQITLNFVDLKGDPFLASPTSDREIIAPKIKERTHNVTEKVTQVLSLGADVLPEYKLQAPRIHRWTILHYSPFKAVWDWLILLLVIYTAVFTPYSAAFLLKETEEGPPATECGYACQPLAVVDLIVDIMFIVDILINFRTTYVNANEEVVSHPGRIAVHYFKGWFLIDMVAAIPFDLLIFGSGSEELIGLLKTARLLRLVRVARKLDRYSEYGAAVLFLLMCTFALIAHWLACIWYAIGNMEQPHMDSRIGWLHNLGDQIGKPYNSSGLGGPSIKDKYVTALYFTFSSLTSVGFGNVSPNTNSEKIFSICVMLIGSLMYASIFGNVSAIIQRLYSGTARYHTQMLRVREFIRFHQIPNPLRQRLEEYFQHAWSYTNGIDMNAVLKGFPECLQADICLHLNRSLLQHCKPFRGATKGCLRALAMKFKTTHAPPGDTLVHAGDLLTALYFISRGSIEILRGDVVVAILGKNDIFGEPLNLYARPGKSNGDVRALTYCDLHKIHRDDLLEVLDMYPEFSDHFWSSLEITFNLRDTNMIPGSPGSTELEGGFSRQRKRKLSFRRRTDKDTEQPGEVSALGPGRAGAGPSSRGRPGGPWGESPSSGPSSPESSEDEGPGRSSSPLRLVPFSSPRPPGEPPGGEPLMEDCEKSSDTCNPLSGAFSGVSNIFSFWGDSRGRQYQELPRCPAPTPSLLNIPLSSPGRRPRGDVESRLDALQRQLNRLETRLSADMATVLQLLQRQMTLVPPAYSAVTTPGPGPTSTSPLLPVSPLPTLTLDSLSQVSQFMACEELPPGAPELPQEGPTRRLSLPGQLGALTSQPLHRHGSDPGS

- IC50 (Axl): > 10 µM
SMILES: Cn1cc(-c2cnc(Nc3ccc4c(c3)CNCC4)nc2N[C@H]2CC[C@@H](N)CC2)cn1 [Compound 88, N4-((1s,4s)-4-aminocyclohexyl)-5-(1-methyl-1H-pyrazol-4-yl)-N2-(1,2,3,4-tetrahydroisoquinolin-7-yl)pyrimidin-2,4-diamine]

- IC50 (Axl): > 10 µM
SMILES: Cn1cc(-c2cnc(NC34CC5CC(CC(C5)C3)C4)nc2NC2CCCCC2)cn1 [Compound 23, N4-cyclohexyl-N2-adamantyl-5-(1-methyl-1H-pyrazol-4-yl)pyrimidine-2,4-diamine]

- IC50 (Axl): > 10 µM
SMILES: Cn1cc(-c2cnc(Nc3ccc4c(c3)CN(C(=O)C(F)(F)F)CC4)nc2N[C@H]2CC[C@@H](NC(=O)C(F)(F)F)CC2)cn1 [Compound 86, N-((1s,4s)-4-(5-(1-methyl-1H-pyrazol-4-yl)-2-(2-(2,2,2-trifluoroacetyl)-1,2,3,4-tetrahydroisoquinolin-7-ylamino)pyrimidin-4-ylamino)cyclohexyl)-2,2,2-trifluoroacetamide]

- IC50 (Axl): > 10 µM
SMILES: O=C(N1CCC(Nc2nc(Nc3cc(Cl)cc(Cl)c3)ncc2-c2cnn(CCO)c2)CC1)C(F)(F)F [Compound 71, 1-(4-(2-(3,5-dichlorophenylamino)-5-(1-(2-hydroxyethyl)-1H-pyrazol-4-yl)pyrimidin-4-ylamino)piperidin-1-yl)-2,2,2-trifluoroethanone]

- IC50 (Axl): > 10 µM
SMILES: O=C(N1CCc2ccc(Nc3nc(Nc4cccc(Cl)c4Cl)ncc3-c3cnn(CCO)c3)cc2C1)C(F)(F)F [Compound 125, 1-(7-(2-(2,3-dichlorophenylamino)-5-(1-(2-hydroxyethyl)-1H-pyrazol-4-yl)pyrimidin-4-ylamino)-3,4-dihydroisoquinolin-2(1H)-yl)-2,2,2-trifluoroethanone]

- IC50 (Axl): > 10 µM
SMILES: Cc1ccc(Nc2ncc(-c3ccoc3)c(NC3CCN(C(=O)C(F)(F)F)CC3)n2)cc1 [Compound 49, 1-(4-(2-(p-toluidino)-5-(furan-3-yl)pyrimidin-4-ylamino)piperidin-1-yl)-2,2,2-trifluoroethanone]

- IC50 (Tyro 3): 6.2e-06 µM
- IC50 (Axl): > 10 µM
SMILES: Cn1cc(-c2cnc(Nc3cc(C(F)(F)F)cc(C(F)(F)F)c3)nc2Nc2ccc3c(c2)CN(C(=O)C(F)(F)F)CC3)cn1 [Compound 139, 1-(7-(2-(3,5-bis(trifluoromethyl)phenylamino)-5-(1-methyl-1H-pyrazol-4-yl)pyrimidin-4-ylamino)-3,4-dihydroisoquinolin-2(1H)-yl)-2,2,2-trifluoroethan-1-one]

- IC50 (Axl): > 10 µM
SMILES: COc1cc(Nc2ncc(-c3cnn(C)c3)c(Nc3ccc4c(c3)CN(C(=O)C(F)(F)F)CC4)n2)cc(OC)c1 [Compound 138, 1-(7-(2-(3,5-dimethoxyphenylamino)-5-(1-methyl-1H-pyrazol-4-yl)pyrimidin-4-ylamino)-3,4-dihydroisoquinolin-2(1H)-yl)-2,2,2-trifluoroethan-1-one]

- IC50 (Mer): 0.068 µM
SMILES: CCOc1cn(-c2ccc(F)cc2C)nc1C(=O)Nc1ccc(Oc2ccnc3cc(OC)c(OC)cc23)c(F)c1 [LDC1267, reference compound]

- IC50 (Axl): > 10 µM
SMILES: Cc1cc(Nc2ncc(-c3cnn(C)c3)c(NC3CCN(C(=O)C(F)(F)F)CC3)n2)ccc1Cl [Compound 43, 1-(4-(2-(3-methyl-4-chlorophenylamino)-5-(1-methyl-1H-pyrazol-4-yl)pyrimidin-4-ylamino)piperidin-1-yl)-2,2,2-trifluoroethanone]

The next lines start with the molecule.

SMILES: OCCn1cc(-c2cnc(Nc3cc(Cl)cc(Cl)c3)nc2NC2CCNCC2)cn1 [Compound 75, 2-(4-(2-(3,5-dichlorophenylamino)-4-(piperidin-4-ylamino)pyrimidin-5-yl)-1H-pyrazol-1-yl)ethanol]
- IC50 (hERG): ≥ 50 µM

SMILES: Clc1cc(Cl)cc(Nc2ncc(-c3cnn(C4CCNCC4)c3)c(Nc3ccc4c(c3)CNCC4)n2)c1 [Compound 132, N2-(3,5-dichlorophenyl)-5-(1-(piperidin-4-yl)-1H-pyrazol-4-yl)-N4-(1,2,3,4-tetrahydroisoquinolin-7-yl)pyrimidine-2,4-diamine]
- hERG toxicity (hERG): no hERG toxicity

SMILES: COc1cccc(-c2cnc(Nc3cc(Cl)cc(Cl)c3)nc2NC2CCNCC2)c1 [Compound 60, N2-(3,5-dichlorophenyl)-5-(3-methoxyphenyl)-N4-(piperidin-4-yl)pyrimidine-2,4-diamine]
- IC50 (hERG): ≤ 1 µM

SMILES: Cc1ccc(Nc2ncc(Br)c(NC3CCCCC3)n2)cc1 [Compound 1, 5-bromo-N4-cyclohexyl-N2-(p-tolyl)pyrimidine-2,4-diamine]
- IC50 (Tyro 3): > 10 µM
- IC50 (Axl): > 10 µM
- IC50 (Mer): > 10 µM

SMILES: Cn1cc(-c2cnc(Cl)nc2NC2CCCCC2)cn1 [Compound 4, 2-chloro-N4-cyclohexyl-5-(1-methyl-1H-pyrazol-4-yl)pyrimidine-4-amine]
- IC50 (Tyro 3): > 10 µM
- IC50 (Mer): > 10 µM

SMILES: OCCn1cc(-c2cnc(Nc3cc(Cl)cc(Cl)c3)nc2Nc2ccc3c(c2)CNCC3)cn1 [Compound 89, 2-(4-(2-(3,5-dichlorophenylamino)-4-(1,2,3,4-tetrahydroisoquinolin-7-ylamino)pyrimidin-5-yl)-1H-pyrazol-1-yl)ethanol]
- hERG toxicity (hERG): no hERG toxicity

SMILES: COc1ccc(Nc2ncc(-c3cnn(C)c3)c(NC3CCCCC3)n2)cc1Cl [Compound 9, N2-(3-chloro-4-methoxyphenyl)-N4-cyclohexyl-5-(1-methyl-1H-pyrazol-4-yl)pyrimidine-2,4-diamine]
- IC50 (Axl): > 10 µM

SMILES: Cn1cc(-c2cnc(Nc3ccccc3)nc2NC2CCCCC2)cn1 [Compound 6, N4-cyclohexyl-5-(1-methyl-1H-pyrazol-4-yl)-N2-phenylpyrimidine-2,4-diamine]
- IC50 (Axl): > 10 µM

SMILES: Cn1cc(-c2cnc(Nc3cc(Cl)cc(Cl)c3)nc2Nc2ccc3c(c2)CNCC3)cn1 [Compound 84, N2-(3,5-dichlorophenyl)-5-(1-methyl-1H-pyrazol-4-yl)-N4-(1,2,3,4-tetrahydroisoquinolin-7-yl)pyrimidine-2,4-diamine]
- hERG toxicity (hERG): no hERG toxicity

SMILES: Clc1cc(Cl)cc(Nc2ncc(-c3cnn(C4CCNCC4)c3)c(NC3CCNCC3)n2)c1 [Compound 73, N2-(3,5-dichlorophenyl)-N4-(piperidin-4-yl)-5-(1-(piperidin-4-yl)-1H-pyrazol-4-yl)pyrimidine-2,4-diamine]
- IC50 (hERG): ≥ 50 µM

SMILES: Cn1cc(-c2cnc(NCCc3ccncc3)nc2NC2CCCCC2)cn1 [Compound 17]
- IC50 (Axl): > 10 µM

SMILES: Cn1cc(-c2cnc(Nc3cc(Cl)cc(Cl)c3)nc2NC2CCNCC2)cn1 [Compound 29, N2-(3,5-dichlorophenyl)-5-(1-methyl-1H-pyrazol-4-yl)-N4-(piperidin-4-yl)pyrimidine-2,4-diamine]
- IC50 (hERG): ≤ 1 µM

SMILES: Cn1cc(-c2cnc(Nc3cc(Cl)cc(Cl)c3)nc2NC2CCCCC2)cn1 [Compound 5, N4-cyclohexyl-N2-(3,5-dichlorophenyl)-5-(1-methyl-1H-pyrazol-4-yl)pyrimidine-2,4-diamine]
- IC50 (Axl): > 10 µM
- IC50 (Mer): > 2 µM
